Laboratory results reported in US8633206B2, “Pyrrolo[2,3-D]pyrimidine compounds” (Pfizer Inc., priority 2009, dated 2014).

Columns and labels:
Assay type in all cases: biochemical
JAK3 = JAK3 (Homo sapiens (Human), UniProt P52333); assay: JAK enzymatic assay (peptide mobility shift), JAK3; settings: recombinant JAK3 1 nM, JAKtide peptide, 90 minutes
JAK2 = JAK2 (Homo sapiens (Human), UniProt O60674); assay: JAK enzymatic assay (peptide mobility shift), JAK2; settings: recombinant JAK2 2 nM, JAKtide peptide, 150 minutes
JAK2, sequence (O60674 808-1132): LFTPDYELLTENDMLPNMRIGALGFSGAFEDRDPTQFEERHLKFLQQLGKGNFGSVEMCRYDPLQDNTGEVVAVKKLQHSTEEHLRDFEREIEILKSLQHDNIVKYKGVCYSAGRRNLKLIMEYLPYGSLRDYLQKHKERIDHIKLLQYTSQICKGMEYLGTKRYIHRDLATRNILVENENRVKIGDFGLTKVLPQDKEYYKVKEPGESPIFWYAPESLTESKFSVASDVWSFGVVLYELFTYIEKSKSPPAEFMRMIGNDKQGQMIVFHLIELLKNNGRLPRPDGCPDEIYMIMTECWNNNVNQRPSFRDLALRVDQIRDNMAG
From the text: Recombinant JAK1 (Catalog Number PV4775), JAK2 (Catalog Number PV4210) and JAK3 (Catalog Number PV3855) were purchased from (Invitrogen Corporation, Madison, Wis.). Tyk2 (His-Tyk2 (888-1182, C936S, C1142S)) used in this study was expressed and purified at Pfizer Laboratories. Adenosine 5′-triphosphate (ATP) was obtained from (Sigma Chemical Company, St. Louis, Mo.). […] Coating Reagent 3 was purchased from (Caliper Life Sciences, Hopkinton, Mass.).
A peptide mobility shift assay was used to quantify the phosphorylation of the JAKtide (JAK2 and JAK3) or the IRS-1 peptide (JAK1 and Tyk2). Reactions were carried out in a 384-well plate (Matrical MP-101) in a 10 L total volume. […] Compounds were diluted serially in 100% dimethyl sulfoxide and tested in an 11 point dose response in duplicate or quadruplicate (200 nl of compound/DMSO was added per 10 L reaction). The reactions were initiated by the addition of enzyme to the final concentration of 2 nM JAK2, 1 nM JAK3, 12 nM Tyk2 or 20 nM JAK1. The assay was run for 240 minutes for JAK1, 150 minutes for JAK2, 90 minutes for JAK3 and 70 minutes for Tyk2. The assays were stopped at the specified times with 20 uL of 140 mM HEPES, 22.5 mM EDTA and 0.15% Coating Reagent 3. The plates were placed on a LabChip 3000 (LC3000) instrument from (Caliper Life Sciences) to measure the formation of phosphorylated peptide. Data was analyzed using Hits Well Analyzer Software from (Caliper Life Sciences) to obtain the amount of product formed.
Data was then imported into an internal application where each data point is expressed as % inhibition based on uninhibited and no enzyme controls. Dose-response data is then fit using a 4 parameter logistic equation (Equation 1) to determine an IC50.

JAK1 = JAK1 (Homo sapiens (Human), UniProt P23458); assay: JAK enzymatic assay (peptide mobility shift), JAK1; settings: recombinant JAK1 20 nM, IRS-1 peptide, 240 minutes
JAK1, sequence (P23458 whole entry): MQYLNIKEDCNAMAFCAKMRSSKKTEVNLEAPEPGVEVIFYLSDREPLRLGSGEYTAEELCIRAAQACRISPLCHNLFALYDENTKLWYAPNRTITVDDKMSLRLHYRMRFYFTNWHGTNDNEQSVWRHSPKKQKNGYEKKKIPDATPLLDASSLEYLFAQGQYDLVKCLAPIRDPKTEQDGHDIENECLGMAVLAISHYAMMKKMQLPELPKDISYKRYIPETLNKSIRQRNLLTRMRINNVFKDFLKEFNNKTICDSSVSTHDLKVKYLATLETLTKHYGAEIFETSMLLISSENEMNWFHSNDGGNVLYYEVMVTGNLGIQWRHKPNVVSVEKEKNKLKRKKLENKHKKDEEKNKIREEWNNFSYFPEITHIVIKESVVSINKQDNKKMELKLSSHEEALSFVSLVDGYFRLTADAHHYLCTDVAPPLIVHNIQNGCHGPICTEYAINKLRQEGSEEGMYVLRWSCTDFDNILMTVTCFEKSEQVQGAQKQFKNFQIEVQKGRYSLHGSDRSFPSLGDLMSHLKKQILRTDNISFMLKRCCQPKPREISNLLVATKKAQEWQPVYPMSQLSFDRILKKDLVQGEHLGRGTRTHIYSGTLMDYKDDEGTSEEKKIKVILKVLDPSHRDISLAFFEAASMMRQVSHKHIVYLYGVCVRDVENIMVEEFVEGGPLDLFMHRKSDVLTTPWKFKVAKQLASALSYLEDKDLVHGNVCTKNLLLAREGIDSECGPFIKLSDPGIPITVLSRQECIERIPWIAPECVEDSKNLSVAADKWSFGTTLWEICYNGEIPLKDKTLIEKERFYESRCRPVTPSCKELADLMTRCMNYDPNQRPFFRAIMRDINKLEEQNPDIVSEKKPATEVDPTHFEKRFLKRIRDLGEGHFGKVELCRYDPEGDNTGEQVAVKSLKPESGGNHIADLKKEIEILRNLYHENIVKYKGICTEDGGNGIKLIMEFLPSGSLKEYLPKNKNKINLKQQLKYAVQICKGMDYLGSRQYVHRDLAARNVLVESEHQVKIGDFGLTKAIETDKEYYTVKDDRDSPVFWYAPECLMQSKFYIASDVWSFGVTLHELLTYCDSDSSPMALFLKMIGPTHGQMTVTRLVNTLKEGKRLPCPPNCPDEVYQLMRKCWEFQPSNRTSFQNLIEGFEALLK

JAK3, sequence (P52333 781-1124): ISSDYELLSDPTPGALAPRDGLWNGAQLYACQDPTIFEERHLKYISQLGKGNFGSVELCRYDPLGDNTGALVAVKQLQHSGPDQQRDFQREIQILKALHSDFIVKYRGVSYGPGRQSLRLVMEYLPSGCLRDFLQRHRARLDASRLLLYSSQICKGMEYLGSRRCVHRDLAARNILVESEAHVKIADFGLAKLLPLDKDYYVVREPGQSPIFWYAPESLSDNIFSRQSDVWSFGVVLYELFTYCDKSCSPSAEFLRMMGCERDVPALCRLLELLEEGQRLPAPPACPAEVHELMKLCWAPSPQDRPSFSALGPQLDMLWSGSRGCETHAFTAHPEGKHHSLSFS

IC50 (JAK3)	IC50 (JAK2)	IC50 (JAK1)	Compound
0.447 µM	0.0526 µM	0.0111 µM	CN(c1ncnc2[nH]ccc12)[C@H]1CC[C@H](CS(=O)(=O)N2CC[C@@H](CC#N)C2)CC1 [Example 35, {(3S)-1-[({trans-4-[methyl(7H-pyrrolo[2,3-d]pyrimidin-4-yl)amino]cyclohexyl}methyl)-sulfonyl]pyrrolidin-3-yl}acetonitrile]
0.123 µM	0.0187 µM	0.00535 µM	CN(c1ncnc2[nH]ccc12)[C@H]1CC[C@H](CS(=O)(=O)N2C[C@@H](O)[C@H](C#N)C2)CC1 [Example 36, (3S,4S)-4-hydroxy-1-[({trans-4-[methyl(7H-pyrrolo[2,3-d]pyrimidin-4-yl)amino]cyclohexyl}methyl)-sulfonyl]pyrrolidine-3-carbonitrile]
1.92 µM	0.126 µM	0.0114 µM	CC1CN(S(=O)(=O)C[C@H]2CC[C@H](N(C)c3ncnc4[nH]ccc34)CC2)CCN1C (stereo partly drawn) [Example 38, N-(trans-4-{[(3,4-dimethylpiperazin-1-yl)-sulfonyl]methyl}cyclo-hexyl)-N-methyl-7H-pyrrolo-[2,3-d]pyrimidin-4-amine]
0.393 µM	0.0754 µM	0.0234 µM	CN(c1ncnc2[nH]ccc12)[C@H]1CC[C@@H](CS(=O)(=O)N2CCC[C@H](C#N)C2)CC1 [Example 39, 1-[({cis-4-[methyl(7H-pyrrolo[2,3-d]pyrimidin-4-yl)amino]cyclohexyl}-methyl)sulfonyl]piperidine-3-carbonitrile]
0.105 µM	0.00804 µM	0.00144 µM	CN(c1ncnc2[nH]ccc12)[C@H]1CC[C@H](CS(=O)(=O)N2CCC[C@@H](O)C2)CC1 [Example 40, (3R)-1-[({trans-4-[methyl(7H-pyrrolo[2,3-d]pyrimidin-4-yl)amino]-cyclohexyl}methyl)sulfonyl]piperidin-3-ol]
0.634 µM	0.107 µM	0.0221 µM	COC1CCN(S(=O)(=O)C[C@H]2CC[C@H](N(C)c3ncnc4[nH]ccc34)CC2)CC1 [Example 41, N-(trans-4-{[(4-methoxy-piperidin-1-yl)-sulfonyl]-methyl}cyclohexyl)-N-methyl-7H-pyrrolo[2,3-d]-pyrimidin-4-amine]
0.431 µM	0.0669 µM	0.0165 µM	CN(c1ncnc2[nH]ccc12)[C@H]1CC[C@H](CS(=O)(=O)N2CCC(C#N)CC2)CC1 [Example 42, 1-[({trans-4-[methyl(7H-pyrrolo[2,3-d]pyrimidin-4-yl)amino]cyclohexyl}-methyl)sulfonyl]piperidine-4-carbonitrile]
0.434 µM	0.071 µM	0.0128 µM	COCC1CCN(S(=O)(=O)C[C@H]2CC[C@H](N(C)c3ncnc4[nH]ccc34)CC2)CC1 [Example 43, N-[trans-4-({[4-(methoxy-methyl)piperidin-1-yl]-sulfonyl}methyl)-cyclohexyl]-N-methyl-7H-pyrrolo[2,3-d]pyrimidin-4-amine]
0.353 µM	0.0611 µM	0.00801 µM	CCC1(C(N)=O)CCN(S(=O)(=O)C[C@H]2CC[C@H](N(C)c3ncnc4[nH]ccc34)CC2)CC1 [Example 44, 4-ethyl-1-[({trans-4-[methyl(7H-pyrrolo[2,3-d]-pyrimidin-4-yl)amino]-cyclohexyl}methyl)sulfonyl] piperidine-4-carboxarnide]
0.0396 µM	0.00897 µM	0.00159 µM	COCCC1(C(N)=O)CCN(S(=O)(=O)C[C@H]2CC[C@H](N(C)c3ncnc4[nH]ccc34)CC2)CC1 [Example 45, 4-(2-methoxyethyl)-1-[({trans-4-[methyl(7H-pyrrolo[2,3-d]pyrimidin-4-yl)amino]cyclohexyl}-methyl)sulfonyl]piperidine-4-carboxamide]
0.167 µM	0.0177 µM	0.00598 µM	CN(c1ncnc2[nH]ccc12)[C@H]1CC[C@H](CS(=O)(=O)N2CCC(Cc3ncccn3)CC2)CC1 [Example 46, N-methyl-N-[trans-4-({[4-(pyrimidin-2-ylmethyl)-piperidin-1-yl]sulfonyl}-methyl)cyclohexyl]-7H-pyrrolo[2,3-d]pyrimidin-4-amine]
0.397 µM	0.0684 µM	0.0135 µM	CN(c1ncnc2[nH]ccc12)[C@H]1CC[C@H](CS(=O)(=O)N2CCC(C(C)(C)O)CC2)CC1 [Example 47, 2-{1-[({trans-4-[methyl(7H-pyrrolo[2,3-d]pyrimidin-4-yl)amino]cyclohexyl}methyl)-sulfonyl]piperidin-4-yl}propan-2-ol]
0.753 µM	0.0849 µM	0.0227 µM	Cc1ccc(CC2CCN(S(=O)(=O)C[C@H]3CC[C@H](N(C)c4ncnc5[nH]ccc45)CC3)CC2)nn1 [Example 48, N-methyl-N-{trans-4-[({4-[(6-methylpyridazin-3-yl)methyl]piperidin-1-yl}sulfonyl)methyl]cyclo-hexyl}-7H-pyrrolo[2,3-d]-pyrimidin-4-amine]
0.581 µM	0.0658 µM	0.00833 µM	CN(c1ncnc2[nH]ccc12)[C@H]1CC[C@H](CS(=O)(=O)N2CCC(c3nc(CS(C)(=O)=O)no3)CC2)CC1 [Example 50, N-methyl-N-(trans-4-{[(4-{3-[(methylsulfonyl)-methyl]-1,2,4-oxadiazol-5-yl}piperidin-1-yl)sulfonyl]-methyl)cyclohexyl)-7H-pyrrolo[2,3-d]pyrimidin-4-amine]
0.781 µM	0.0851 µM	0.0164 µM	CC1CCN(S(=O)(=O)C[C@H]2CC[C@H](N(C)c3ncnc4[nH]ccc34)CC2)CC1 [Example 51, N-methyl-N-(trans-4-{[(4-methylpiperidin-1-yl)sulfonyl]-methyl}cyclohexyl)-7H-pyrrolo[2,3-d]pyrimidin-4-amine]
1.24 µM	0.115 µM	0.0226 µM	CCN(CC)C(=O)C1CCN(S(=O)(=O)C[C@H]2CC[C@H](N(C)c3ncnc4[nH]ccc34)CC2)CC1 [Example 52, N,N-diethyl-1-[({trans-4-[methyl(7H-pyrrolo[2,3-d]-pyrimidin-4-yl)amino]-cyclohexyl}methyl)sulfonyl] piperidine-4-carboxamide]
0.377 µM	0.0449 µM	0.022 µM	CNC(=O)C1CCN(S(=O)(=O)C[C@H]2CC[C@H](N(C)c3ncnc4[nH]ccc34)CC2)CC1 [Example 54, N-methyl-1-[({trans-4-[methyl(7H-pyrrolo[2,3-d]-pyrimidin-4-yl)amino]-cyclohexyl}methyl)sulfonyl] piperidine-4-carboxamide]
0.681 µM	0.0848 µM	0.0201 µM	CN(c1ncnc2[nH]ccc12)[C@H]1CC[C@H](CS(=O)(=O)N2CCC(CC(N)=O)CC2)CC1 [Example 55, 2-{1-[({trans-4-[methyl(7H-pyrrolo[2,3-d]pyrimidin-4-yl)amino]cyclohexyl}-methyl)sulfonyl]piperidin-4-yl}-acetamide]
0.17 µM	0.0598 µM	0.00407 µM	CN(c1ncnc2[nH]ccc12)[C@H]1CC[C@H](CS(=O)(=O)N2CCC(COCC3CC3)CC2)CC1 [Example 56, N-{trans-4-[({4-[(cyclopropyl-methoxy)-methyl]piperidin-1-yl}-sulfonyl)-methyl]-cyclohexyl}-N-methyl-7H-pyrrolo[2,3-d]-pyrimidin-4-amine]
0.453 µM	0.0508 µM	0.0077 µM	CN(C)S(=O)(=O)C[C@H]1CCCN(S(=O)(=O)C[C@H]2CC[C@H](N(C)c3ncnc4[nH]ccc34)CC2)C1 [Example 57, N,N-dimethyl-1-{1-[({trans-4-[methyl(7H-pyrrolo[2,3-d]pyrimidin-4-yl)amino]-cyclohexyl}methyl)sulfonyl]piperidin-3-yl}-methanesulfonamide]
0.175 µM	0.018 µM	0.0032 µM	CN(c1ncnc2[nH]ccc12)[C@H]1CC[C@H](CS(=O)(=O)N2CCC[C@H](O)C2)CC1 [Example 58, 1-[({trans-4-[methyl(7H-pyrrolo[2,3-d]pyrimidin-4-yl)-amino]cyclohexyl}-methyl)sulfonyl]piperidin-3-ol]
0.203 µM	0.0237 µM	0.0017 µM	CO[C@@H]1CCCN(S(=O)(=O)C[C@H]2CC[C@H](N(C)c3ncnc4[nH]ccc34)CC2)C1 [Example 60, N-(trans-4-{[(3-methoxy-piperidin-1-yl)sulfonyl]-methyl}cyclohexyl)-N-methyl-7H-pyrrolo[2,3-d]-pyrimidin-4-amine]
0.851 µM	0.0722 µM	0.0108 µM	C[C@H]1CCCN(S(=O)(=O)C[C@H]2CC[C@H](N(C)c3ncnc4[nH]ccc34)CC2)C1 [Example 61, N-methyl-N-(trans-4-{[(3-methylpiperidin-1-yl)sulfonyl]methyl}cyclo-hexyl)-7H-pyrrolo[2,3-d]-pyrimidin-4-amine]
